The test system of one data set is HeLa cells. Description: Live cell imaging / cellular uptake. The class given is cell-based, human. As to conditions: 50 μM in buffer, 4 h incubation, fluorescence microscopy. As for the experimental part:
Live cell imaging was performed in HeLa cell line. Compound 7e in 50 μM concentration in the buffer, were incubated with HeLa cells for 4 h. […] Significant potency, selectivity and cellular imaging property of compound 7e, mark it as a theranostic agent.
Fig. 2 Fluorescence and bright-field images of live cells: (a) fluorescent image of HeLa cell with compound 7e (50 μM in PBS buffer); incubation time 2 hours (b) bright-field image of HeLa cell with compound 7e (50 μM in PBS buffer); incubation time 2 hours. Scale bar 100 μm.
Then the 96 well plate was placed on the shaker for 10 min and subsequently the absorbance was recorded by the ELISA reader at λ = 490 nm. […] The data were expressed as the growth inhibition percentage calculated according to the equation: % growth inhibition = 100 − [(AD × 100)/AB], where AD is the absorbance measured for sample and AB is the absorbance measured for blank wells (cells with a […]
After incubating for 4 h at 37 °C, all the cells were washed with PBS buffer (pH 7.4). Then, the fluorescence images were recorded with an Olympus Fluorescence microscope with 480- […]
Interaction of complex (7e ) with DNA was recorded using UV-Visible absorption spectroscopy and ethidium bromide displacement assay by fluorescence spectroscopy. […]
The CT-DNA concentration in buffer were calculated by using the UV absorbance value at 260 nm and from the known molar […]

Data set [1] is described as follows: Stability in water, GSH and MTT condition by UV-vis spectroscopy. The class given is physicochemical. As for the experimental part:
The stability of compounds in water, GSH, and MTT condition (10% DMSO in PBS buffer) was studied. Water is a key factor because it widens the application in the biological field. […] The stability of complex 7e in water (pH 7.2) and GSH were investigated by UV-vis spectroscopy over a period of 20 h of time (Fig. S2a and b ^†).

The nature of data set [2]: Caco-2 permeability study. The format is in vitro ADME. To be noted: human, Caco-2, 10 μM, N = 3. On the procedure:
(§1) Compound 7g permeation ability (i.e. permeability) was assessed through Caco-2 cell monolayer. Permeability study was planned in both directions from apical to basolateral (A to B) and basolateral to apical (B to A) side. A to B is for checking drug permeation characteristics from the intestine (site of absorption) to systemic circulation and B to A is for checking drug efflux back to the intestine.
Background: Caco-2 monolayers are a common model of the intestinal barrier.

Another data set concerns Caco-2 cell monolayer. Description: Caco-2 permeability study. The class given is in vitro ADME. To be noted: 10 μM, A to B and B to A; samples below the lower limit of quantitation. As for the experimental part: as §1
Data set [3] can be described thus: Metabolic stability in human liver microsomes. The format is in vitro ADME. As to conditions: for % Metabolism in 30 min: 0.5 μM, 0.5 mg ml^−1 protein, NADPH, 37 °C; for half-life at 0.5 μM: human, liver microsomes. On the procedure:
(§2) The in vitro metabolic rate of 7g was determined in liver microsomes and the intrinsic clearance (CLintr) was estimated. The study was conducted at 0.5 μM substrate concentration and microsomal protein concentration of 0.5 mg ml^−1. Metabolic stability study in the presence of microsomes and cofactor NADPH was performed at 37 °C, 60 rpm for 30 min time duration. NADPH free control incubation was performed simultaneously for 30 min to understand if there are any non-enzymatic metabolism related issues. […] Intrinsic clearance as given in Table 6, was calculated using eqn (8). ^†
A general note: Microsomes from liver hold many membrane-bound enzymes, among them those of drug oxidation.

Data set [4] in a line: Biopharmaceutical classification (BCS / BDDCS). To be noted: primarily classified.
A short description of data set [5]: Metabolic stability in dog liver microsomes. The class given is in vitro ADME. To be noted: for % Metabolism in 30 min: 0.5 μM, 0.5 mg ml^−1 protein, NADPH, 37 °C; for half-life at 0.5 μM: dog, liver microsomes. As for the experimental part: as §2
Data set [6] in a line: Buffer stability (LC-MS/MS). The class given is physicochemical. To be noted: pH 7.4 buffer, read-out: % Remaining in 120 min. On the procedure:
(§3) LC-MS/MS methods were developed for compound 7g to quantify the drug concentration and in vitro study (i.e. buffer solubility, buffer stability, metabolic stability, and permeability) in a systemic manner (Table 4). Chromatographic elution conditions were set with the use of 5 mM ammonium formate containing 0.1% formic acid and acetonitrile containing 0.1% formic acid with C8, Kromasil, and 4.6 × […] as a stationary phase (Fig. S5a and b ^†). […] For the data analysis, % accuracy of compound 7g was calculated and it was soluble up to 25 μM (Fig. 3, eqn (7) ^†).
(§4) The in vitro solubility and stability of 7g were evaluated in pH 7.4 buffer. The buffer solubility and stability studies were conducted at six different concentrations ranging from 3.13 to 100 μM. For the data analysis, % stability of compound 7g at 120 min was calculated with respect to 0 min time point samples and it was stable up to 2 hours in pH 7.4 buffers. Data analysis was performed through the eqn (8) ^† and was tabulated (Table 4). Compound 7g found to be stable up to 2 hours with % remaining of 71% in pH 7.4.

Data set [7] in a line: Buffer solubility (LC-MS/MS). The format is physicochemical. As to conditions: aqueous buffer, kinetic from dmso stock; pH 7.4 buffer, 2 h incubation. As for the experimental part: as §3, §4

The record followed here is article PMC9061853, “Luminescent bis(benzo[d]thiazolyl)quinoxaline: facile synthesis, nucleic acid and protein BSA interaction, live-cell imaging, biopharmaceutical research and cancer theranostic application” (RSC Advances, 2019).

Consider `Clc1cc2nc(COc3ccccc3-c3nc4ccccc4s3)c(COc3ccccc3-c3nc4ccccc4s3)nc2cc1Cl` [Compound 7e], for which the “fluorescence of drug-treated live cells (cellular uptake)” value with HeLa cells is recorded as “significant red fluorescence”. Besides, in [1] (10% DMSO in PBS buffer, 18 h), the “stability in MTT condition” value is “insignificant change of absorbance”. Besides, the “stability in GSH” value in data set [1] (GSH, 20 h) is “no changes in absorbance”. Further, the stability in water entry in data set [1] (water pH 7.2, 20 h) is given as “no changes in absorbance”.

With `COc1ccc2nc(COc3ccccc3-c3nc4ccccc4s3)c(COc3ccccc3-c3nc4ccccc4s3)nc2c1` [Compound 7g, 2,2'-((((6-methoxyquinoxaline-2,3-diyl)bis(methylene))bis(oxy))bis(2,1-phenylene))bis(benzo[d]thiazole)], the recovery at 10 μM in [2] (A to B) came to 101%; in data set [2] (B to A), 96%. In addition, the “permeability across Caco-2 cell monolayer” value with Caco-2 cell monolayer is on record as “low permeability”. Besides, the CLint was 28 μl per min per mg protein in data set [3] (HLM set 1), 25 μl per min per mg protein in [3] (HLM set 2), 18 μl per min per mg protein in data set [5] (DLM set 1) and 12 μl per min per mg protein in [5] (DLM set 2). Further, the “% Metabolism in 30 min” value came to 35% in data set [3] (HLM set 1), 38% in data set [3] (HLM set 2), 21% in data set [5] (DLM set 1) and 14% in data set [5] (DLM set 2). Besides, the half-life (as a rule, the time needed for the level to fall by half in the phase considered) at 0.5 μM amounted to 0.821 h in data set [3] (HLM set 1), 0.932 h in [3] (HLM set 2), 1.28 h in data set [5] (DLM set 1) and 1.91 h in [5] (DLM set 2). Also, the BCS class result in data set [4] was “BCS class 4”. Also, the BDDCS class entry in data set [4] is on record as “BDDCS class 4”. Besides, the amount remaining at 2 h, 3.13 μM in [6] (3.13 μM) amounted to 59%. Further, in [6] (6.25 μM), the share remaining at 2 h, 6.25 μM was found to be 68%. Moreover, the amount remaining at 2 h, 12.5 μM in data set [6] (12.50 μM) was 81%. For the same compound, the amount remaining at 2 h, 25 μM in [6] (25.00 μM) came out at 110%. Also, the share remaining at 2 h, 50 μM in data set [6] (50.00 μM) was 110%. Further, in [6] (100.00 μM), the amount remaining at 2 h, 100 μM is 71%. For the same compound, in data set [7], the solubility (commonly the concentration that dissolves in the medium under given conditions) at 2 h is at most 25 µM.
